Data: paper PMC9935382, “Sorting nexin-dependent therapeutic targeting of oncogenic epidermal growth factor receptor” (Cancer Gene Therapy, 2022)
“Also recorded” adds a separate entry of the source.

Assays:
[1] = Potential toxicity in C57Bl/6 J female mice; assay type: in vivo, mouse; conditions: 5.0 or 10.0 μg/g body weight IV 3X/week, 2 weeks, cSNX1.3 vs cPTD4; data not shown
MDA-MB-468 cells = assay type: cell-based; conditions: 3 days, MTT
Description: (§1) 2 × 10^3 cells were plated per well in a 96 well plate and left to adhere overnight. The following day, drug treatments were started and continued for 3 days. To measure the viability of the remaining cell population, 10% 3-(4,5-dimethylthiazol-2-yl)-2,5-diphenyltetrazolium (MTT) in media was added and incubated for 2 hours and conversion of MTT to formazan at 540 nm using a biotech Synergy LX plate reader.
A Peptide sequence alignment of modified and stabilized peptides (−) indicates conserved residues, (/) indicates a deleted residue. Modified residues used for staples are (S)-2-(((9H-flouren-9-yl) methoxy) caronylamino)-2-methyl-hept-6-enoic acid and (R)-2-(((9H-flouren-9-yl) methoxy) caronylamino)-2-methyl-dec-9-enoic acid. PTD4 = Protein Transduction Domain. Ac = acetylation of […] and NH2 = amidation of […]. B MDA-MB-468 cells were treated with 10 μM of the indicated peptide for 3 days. Cell viability was measured using an MTT assay. Vehicle control represents 100%. C. A predicted peptide structure of SNX1.3 was generated using SWISSMODEL with negative (blue) and positive (red) residues highlighted.
A–G Cells were plated in a 96-well plate at 2000 cells per well. […] Cell viability was then measured with an MTT assay, viability of treated cells were compared with the vehicle control. […]

BT20 cells = assay type: cell-based; conditions: 3 days, MTT
Description: as §1
(§2) A–G Cells were plated in a 96-well plate at 2000 cells per well. […] Cell viability was then measured with an MTT assay, viability of treated cells were compared with the vehicle control. H MDA-MB-468 cells were plated and incubated+/− IPTG for 2 days prior to drug treatment to induce expression of an EGFR-targeted shRNA.
(§3) Supplementary Figure 1. A. BT20 triple negative breast cancer cells were treated with SNX1.1, 1.2, or 1.3 for 3 days and their viability was measured via MTT analysis. B. CHO cells were treated with PTD4 or SNX1.3 for 3 days and their viability was measured via MTT analysis.

[2] = target: T1, EGFR kinase domain (residues 672–998) (Homo sapiens, UniProt P00533); assay: Microscale thermophoresis (MST) binding to EGFRkin; conditions: direct binding, MST / BLI
T1 construct: baculovirus insect cell expression system (residues 672–998 with N-terminal His-tag followed by TEV cleavage site); made in house; host or cells: Sf9 insect cells (Bac-to-Bac baculovirus, pFastBacHT)
Description: Briefly pFastBacHT plasmid containing the cDNA of EGFR kinase domain with N-terminal His-tag was transformed into DH10Bac E. coli to generate bacmid DNA. P1 virus was generated by transfecting 2.0 mL of sf9 cells at 1.0 million cells/ml density with the purified bacmid DNA (200–3000 ng/μL). The P1 virus was harvested after 5–7 days following transfection. The P1 virus was diluted 100-fold into an sf9 cell culture at a density of 2.0 million cells/ml and cultured for 3 days. Supernatant containing the P2 virus was collected by centrifugation and diluted 40-fold into 1.0 L of sf9 cells at a density of 2.0 million cells/ml. After 2.5–3 days, cell pellets were harvested by centrifugation at 3500 x g at 4 °C for 20 min, and flash frozen in liquid nitrogen prior to storage at −80 °C.
To purify the EGFR kinase domain, Sf9 cell pellets (~10 g) was thawed on ice and homogenized with 2 passages on an EmulsiFlex-C5 (Avestin) in 50 mL of lysis buffer (50 mM Tris pH 7.5, 600 mM NaCl, 1 mM EDTA, 1 mM TCEP, protease inhibitors, DNAase, and 10% Glycerol). The lysate was centrifugated and supernatant was collected and loaded onto a 1.0 mL HisTrap FF column (GE) at a flow rate of 1.0 ml/min. Following loading, the column was washed with 20 column volumes of wash buffer (50 mM Tris pH 7.5, 600 mM NaCl, 20 mM Imidazole, 1 mM TCEP, and 10% Glycerol) and eluted with a linear gradient of elution buffers containing 20 and 300 mM imidazole. Fractions containing the EGFR kinase domain proteins were combined and concentrated to less than 1.0 mL. The concentrated proteins were loaded onto a Superdex 200 10/300 GL column (GE) equilibrated in buffer (20 mM Tris pH 7.5, 100 mM NaCl) for further purification. The purified proteins were concentrated, flash frozen in liquid nitrogen, and stored at −80 °C.
MST experiments were carried out using a Monolith NT.115 pico instrument (NanoTemper Technologies, Munich Germany). […] Kd values were derived from the concentration-dependent changes in normalized fluorescence (Fnorm). Data were analyzed using NanoTemper MO. […]

[3] = Body weight and toxicity in WAP-TGFα mice; assay type: in vivo; conditions: 10 μg/g IV 3X/week, up to 4 weeks
Description: The transgenic mouse line WAP-TGFα (The Jackson Laboratory; Tg(WapTgfa)215Bri) were back crossed to C57BL/6 J background (N8). WAP-TGFα heterozygous males were bred with C57BL/6 J females to generate study animals and offspring were genotyped using primers against the WAP-TGFα transgene. WAP-TGFα heterozygous females were housed continuously with C57Bl/6 J males to induce pregnancy, resulting in transgene expression. […] To ensure randomized treatment arms we added mice to alternating treatment arms as they developed tumors, starting with the control cPTD4 arm. When a second mouse from the same litter developed a tumor, that animal was added to the opposite arm from its litter mate. The researchers were not blinded to the treatment arms. […] Once entered, mice were weighed, tumors measured, and injections given intravenously at 10 μg/g body weight 3x/week for 4 weeks. […] Upon sacrifice, all tumors were collected and fixed in 10% formalin; a portion of each tumor was homogenized in tissue lysis buffer to form tissue protein lysates. Tissues were paraffin-embedded and sectioned by the Tissue Acquisition and Cell Molecular Analysis Shared Resource at the University of Arizona Cancer Center. […]
When tumors reached >100 mm^3, IV injections began at 3X/week, 10 μg/g body weight and tumors were measured 3X/week with calipers. […]
Supplementary Figure 2. […] B. Tumors were measured with calipers 3X/week. […]

CHO cells = assay: MTT cell viability, CHO; assay type: cell-based, Chinese hamster; conditions: CHO cells lack EGFR expression, 3 days
Description: as §1, §2, §3

[4] = system: mammary tumors of WAP-TGFα transgenic mice; assay: Tumor growth in WAP-TGFα transgenic mice; assay type: in vivo, mouse
Description: Statistics for the animal model was performed by the University of Arizona Cancer Center Biostatistics and Bioinformatics Shared Resources (BBSR). The cube root of the observed tumor burden was applied to normalize the raw values. […] For all cell culture experiments error bars represent the standard error of the mean across 3 experimental replicates.
The transgenic mouse line WAP-TGFα (The Jackson Laboratory; Tg(WapTgfa)215Bri) were back crossed to C57BL/6 J background (N8). WAP-TGFα heterozygous males were bred with C57BL/6 J females to generate study animals and offspring were genotyped using primers against the WAP-TGFα transgene. WAP-TGFα heterozygous females were housed continuously with C57Bl/6 J males to induce pregnancy, resulting in transgene expression. […] To ensure randomized treatment arms we added mice to alternating treatment arms as they developed tumors, starting with the control cPTD4 arm. When a second mouse from the same litter developed a tumor, that animal was added to the opposite arm from its litter mate. The researchers were not blinded to the treatment arms. […] Once entered, mice were weighed, tumors measured, and injections given intravenously at 10 μg/g body weight 3x/week for 4 weeks. […] Upon sacrifice, all tumors were collected and fixed in 10% formalin; a portion of each tumor was homogenized in tissue lysis buffer to form tissue protein lysates. Tissues were paraffin-embedded and sectioned by the Tissue Acquisition and Cell Molecular Analysis Shared Resource at the University of Arizona Cancer Center. The University of Arizona IACUC committee performs oversite of animal experimental protocols with coordination from a veterinarian in compliance with AAALAC.
When tumors reached >100 mm^3, IV injections began at 3X/week, 10 μg/g body weight and tumors were measured 3X/week with calipers. Animals were injected for 4 weeks or until they reached maximal tumor burden, defined as a total tumor volume >2000 mm^3 or an individual tumor measuring >2 cm in diameter. […] The WAP-TGFα is a spontaneous model in which each tumor arises and progresses in a heterogeneous fashion. […] In this study, mice were sacrificed after 4 weeks of injections or once they reached tumor burden, represented by the Kaplin-Meyer graph (Fig. 2B).
Mice were bred continuously to induce transgene expression and palpated weekly for tumor formation. […] A Changes in tumor size from entry into study until end of study are shown for each individual tumor, (*) indicate tumors that entered the study at size greater than 500 mm^3, all other tumors entered the study at ~100 mm^3. B a Kaplan-Meier survival curve was generated showing when mice were sacrificed by either reaching tumor burden (2000 mm^3) or the end of the study (p = 0.0002). C Upon sacrifice tumors were harvested and fixed in 10% formalin and embedded in paraffin. FFPE blocks were sectioned at […] and stained with hematoxylin and eosin and imaged at 20x. D Protein lysates were generated from tumors upon the sacrifice and probed for the indicated proteins.

MCF10A cells = assay: MTT cell viability, MCF10A; assay type: cell-based; conditions: immortalized breast epithelial line, 3 days
Description: as §1, §2

[5] = system: EGFRkin / SNX1 BAR domain; assay: Competitive binding assay, SNX BAR / EGFRkin; design: species or system human; conditions: 2.5 μM peptide; data not shown

T1 sequence (P00533 696-1022): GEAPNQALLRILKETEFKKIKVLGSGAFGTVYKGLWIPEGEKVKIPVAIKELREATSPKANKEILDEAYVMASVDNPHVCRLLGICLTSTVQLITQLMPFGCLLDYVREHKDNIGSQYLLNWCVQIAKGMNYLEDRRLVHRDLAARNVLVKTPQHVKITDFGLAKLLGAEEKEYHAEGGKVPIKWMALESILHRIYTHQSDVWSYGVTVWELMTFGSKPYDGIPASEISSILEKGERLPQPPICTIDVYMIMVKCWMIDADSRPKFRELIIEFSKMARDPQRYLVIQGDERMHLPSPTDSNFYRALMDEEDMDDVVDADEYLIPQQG

CC[C@H](C)[C@H](NC(=O)[C@@H](NC(=O)[C@H](Cc1c[nH]cn1)NC(=O)[C@H](CC(N)=O)NC(=O)[C@H](CCCCN)NC(=O)[C@H](C)NC(=O)[C@H](CCCNC(=N)N)NC(=O)[C@H](C)NC(=O)[C@H](CCC(N)=O)NC(=O)[C@H](CCCNC(=N)N)NC(=O)[C@H](C)NC(=O)[C@H](C)NC(=O)[C@H](C)NC(=O)[C@H](CCCNC(=N)N)NC(=O)[C@H](C)NC(=O)[C@H](Cc1ccc(O)cc1)NC(C)=O)C(C)C)C(=O)N[C@@H](CCCCN)C(=O)N[C@@H](Cc1ccc(O)cc1)C(=O)N[C@@H](CC(C)C)C(=O)N[C@@H](CCC(=O)O)C(=O)N[C@H](C(=O)N[C@@H](CC(C)C)C(=O)N[C@@H](CC(C)C)C(=O)N[C@@H](Cc1ccc(O)cc1)C(=O)N[C@@H](CO)C(=O)N[C@@H](CCC(N)=O)C(=O)N[C@@H](CCC(N)=O)C(=O)N[C@@H](CCC(N)=O)C(=O)N[C@@H](CC(C)C)C(=O)N[C@@H](C)C(=O)N[C@@H](CCCCN)C(=O)N[C@@H](Cc1ccc(O)cc1)C(=O)N[C@@H](Cc1c[nH]c2ccccc12)C(=O)N[C@@H](CCC(=O)O)C(=O)N[C@@H](C)C(=O)N[C@@H](Cc1ccccc1)C(=O)N[C@@H](CC(C)C)C(N)=O)[C@@H](C)O [cSNX1.3]
weight, behavior, or grooming [1]: No difference in weight, behavior, or grooming was observed | inhibition of cell survival compared with Sapitinib (MDA-MB-468 cells): more effective than Sapitinib | inhibition of cell survival compared with Sapitinib (BT20 cells): more effective than Sapitinib | binding to the EGFR kinase domain [2]: directly bind the EGFR kinase domain | observable toxicity [3]: without observable toxicity; also recorded: no observable toxicity; also recorded: lack of observable toxicity in normal tissues | impact on cell viability / growth (CHO cells): almost no impact | tumor response ([4]; 10 μg/g IV 3X/week, up to 4 weeks): significant tumor regression; also recorded: significant reduction in tumor growth; also recorded: several tumors completely regress | average tumor regression rate ([4]; 10 μg/g IV 3X/week, up to 4 weeks, n = 11 tumors): 4 mm^3/day | average tumor growth rate ([4]; 10 μg/g body weight IV 3X/week, up to 4 weeks, cPTD4 n = 14 tumors, cSNX1.3 n = 11 tumors): -4 mm^3/day | mice that reached tumor burden ([4]; mice of total before end of the study, total tumor volume >2000 mm^3 or individual tumor >2 cm): 1/6 | tumors fully regressed ([4]; number of tumors, calipers and confirmed during necropsy, 10 μg/g IV 3X/week): 3 | tumors that demonstrated growth ([4]; number or proportion of tumors at end of study, the 2 growing cSNX1.3 tumors entered at greater than 500 mm^3): 2 | tumors with no change in tumor volume ([4]; tumors of total, first to last measurement, 10 μg/g IV 3X/week): 2/11 | tumors regressed ([4]; tumors of total, 10 μg/g IV 3X/week, up to 4 weeks): 7/11 | impact on cell viability / growth (MCF10A cells): almost no impact | inhibition of SNX BAR binding to EGFRkin [5]: blocks SNX BAR binding to EGFRkin
